Structures are written as SMILES. *1 amine or outer side, *2 acyl side, *3 side chain or, on linkers, in order; H or OH if unused. Where a SMILES comes first, the peptide text is derived from it. Bridges are numbered along the chain shown (N, C = ends). [ ]: non-standard residue; d: D form. Phe(4-guanidino) = N=C(N)Nc1ccc(C[C@H](N)C(=O)O)cc1; Ala(pyrimidin-5-yl) = N[C@@H](Cc1cncnc1)C(=O)O; X37 = O=C([C@H](Cc1cnc(F)cc1F)N[*:1])[*:2]; X25 = O=C([C@H](Cc1ccc(F)nc1)N[*:1])[*:2]; X69 = O=C([C@H]1CC[C@@H](N[*:1])C1)[*:2]; X80 = Nc1nccn1CCC[C@H](N[*:1])C(=O)[*:2]; Lys(N3) = [N-]=[N+]=NCCCC[C@H](N)C(=O)O; Nle(5,5-F2) = CC(F)(F)CC[C@H](N)C(=O)O; Phe(4-F) = N[C@@H](Cc1ccc(F)cc1)C(=O)O; 1Nal = N[C@@H](Cc1cccc2ccccc12)C(=O)O; NHCH2CH2SCH2CO = O=C(CSCCN[*:1])[*:2]; Ala(cPent) = N[C@@H](CC1CCCC1)C(=O)O; Phe(2-F) = N[C@@H](Cc1ccccc1F)C(=O)O; NMe3Pal = CN[C@@H](Cc1cccnc1)C(=O)O; X1 = O=C(C12CC(CN[*:1])(C1)C2)[*:2]; X53 = C[C@@H](CSCC(=O)[*:2])N[*:1]; Ala(cPr) = N[C@@H](CC1CC1)C(=O)O; NMeF = CN[C@@H](Cc1ccccc1)C(=O)O; PhLac = O=C(O)[C@@H](O)Cc1ccccc1; hIle = CC[C@H](C)C[C@H](N)C(=O)O; 3Pal = N[C@@H](Cc1cccnc1)C(=O)O; 4Pal = N[C@@H](Cc1ccncc1)C(=O)O; d3Pal = N[C@H](Cc1cccnc1)C(=O)O; Ahp(2) = CCCCC[C@H](N)C(=O)O; Cba = N[C@@H](CC1CCC1)C(=O)O; hLeu = CC(C)CC[C@H](N)C(=O)O; αMeC = C[C@](N)(CS)C(=O)O; NMeA = CN[C@@H](C)C(=O)O; Nle = CCCC[C@H](N)C(=O)O; Nva = CCC[C@H](N)C(=O)O

For 15 molecules, EC50 results are on record in patent US20260001914A1, “MACROCYCLIC PEPTIDES TARGETING KRAS” (Merck Sharp & Dohme LLC, priority 2022, published 2026).

KRAS-G12D protein, sequence (P01116 1-188 isoform P01116-2 G12D): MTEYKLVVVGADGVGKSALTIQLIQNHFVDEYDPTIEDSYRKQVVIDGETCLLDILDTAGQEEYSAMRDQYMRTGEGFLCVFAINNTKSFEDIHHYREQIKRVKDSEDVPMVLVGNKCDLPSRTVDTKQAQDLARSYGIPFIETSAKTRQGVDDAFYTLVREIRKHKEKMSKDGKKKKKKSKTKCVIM

The assay addresses KRAS-G12D protein (Homo sapiens, UniProt P01116, G12D). The assay can be described thus: SOS-mediated nucleotide exchange assay (BODIPY-GDP / Tb-streptavidin TR-FRET). It is filed as biochemical. For orientation: Time-resolved FRET reads energy transfer from a long-lived donor to a nearby acceptor.
What is called EC50 is the concentration that produces a half-maximal response. A high value points to a need for much substance. In turn, `CCCC[C@@H]1NC(=O)[C@H](Cc2ccc(OC)cc2)NC(=O)[C@H](CC2CCC2)NC(=O)[C@@H](Cc2cccnc2)NC(=O)[C@H](CCCNC(=N)N)NC(=O)[C@H](Cc2ccccc2)NC(=O)CSC[C@H](C)NC(=O)[C@H](Cc2ccccc2)N(C)C1=O` [compound 180, cyclo(F-R-d3Pal-cBuA-TyrOMe-Nle-NMeF-Smcysteamine-ClAc)] (cyclo([Cba]Y(Me)[Nle][NMeF][X53]FR[d3Pal])) had an EC50 of 37.8 nM.
Consider `CCCC[C@@H]1NC(=O)[C@H](Cc2cccnc2)NC(=O)[C@H](CCCNC(=N)N)NC(=O)[C@H](Cc2ccccc2)NC(=O)CSC[C@@](C)(C(=O)N(C)C)NC(=O)[C@H](Cc2cccnc2)N(C)C(=O)[C@H](CCCC)NC(=O)[C@H](Cc2ccccc2F)NC1=O` [compound 184, cyclo(F-R-3Pal-Nle-Phe2F-Nle-NMe3Pal-aMeC7-ClAc)] ({CH2CO}-FR[3Pal][Nle][Phe(2-F)][Nle][NMe3Pal][αMeC]-NMe2; thioether N-8), for which the EC50 worked out at 728 nM.
In the case of `CCCC[C@@H]1NC(=O)[C@H](Cc2ccncc2)NC(=O)[C@H](CCCNC(=N)N)NC(=O)[C@H](Cc2cccc3ccccc23)NC(=O)CSC[C@H](C(=O)O)NC(=O)[C@H](Cc2ccccc2)N(C)C(=O)[C@H](CCC)NC(=O)[C@H](Cc2ccc(O)cc2)NC1=O` [compound 140, cyclo(INal-R-4Pal-Nle-Y-Nva-NMeF-dC-ClAc)] ({CH2CO}-[1Nal]R[4Pal][Nle]Y[Nva][NMeF][dC]-OH; thioether N-8) it was 1170 nM; in that of `CCCC[C@@H]1NC(=O)[C@H](Cc2ccc(F)nc2)NC(=O)[C@H](C)N(C)C(=O)[C@H](Cc2ccccc2)OC(=O)C23CC(CNC(=O)[C@H](Cc4ccccc4)N(C)C(=O)[C@H](CCCC)NC(=O)[C@H](Cc4ccccc4F)NC1=O)(C2)C3` [compound 231, cyclo(FLac-NMeA-4F3Pal-Nle-Phe2F-Nle-NMeF-amBCP)] (cyclo([NMeA][X25][Nle][Phe(2-F)][Nle][NMeF][X1][PhLac])), 72.4 nM; in that of `CC(C)CC[C@@H]1NC(=O)[C@H](Cc2cnc(F)cc2F)NC(=O)[C@H](CC2CC2)NC(=O)[C@H](Cc2cncnc2)NC(=O)[C@H](C)N(C)C(=O)[C@H](Cc2ccccc2)OC(=O)C23CC(CNC(=O)[C@H](Cc4ccccc4)N(C)C1=O)(C2)C3` [compound 294, cyclo(FLac-NMeA-PyrimAla-cPrA-3Pal46F2-hL-NMeF-amBCP)] (cyclo([Ala(cPr)][X37][hLeu][NMeF][X1][PhLac][NMeA][Ala(pyrimidin-5-yl)])), 7 nM.
Regarding `CCCC[C@@H]1NC(=O)[C@H](Cc2ccccc2)NC(=O)[C@H](C)N(C)C(=O)[C@H](Cc2ccccc2)OC(=O)C23CC(CNC(=O)[C@H](Cc4ccccc4)N(C)C(=O)[C@H](CCCC)NC(=O)[C@H](Cc4ccccc4F)NC1=O)(C2)C3` [compound 305, cyclo(FLac-NMeA-F-Nle-Phe2F-Nle-NMeF-amBCP)] (cyclo(F[Nle][Phe(2-F)][Nle][NMeF][X1][PhLac][NMeA])), the response was half-maximal at 1790 nM (EC50).
In the case of `CCCC[C@@H]1NC(=O)[C@H](Cc2ccc(O)cc2)NC(=O)[C@H](CC(C)C)NC(=O)[C@H](Cc2ccc(OC)cc2)NC(=O)[C@H](CCCNC(=N)N)NC(=O)[C@H](Cc2ccccc2)NC(=O)CSCCNC(=O)[C@H](Cc2ccccc2)N(C)C1=O` [compound 72, cyclo(F-R-TyrOMe-L-Y-Nle-NMeF-Cysteamine-ClAc)] it was 2250 nM; in that of `CCC[C@@H]1NC(=O)[C@H](Cc2ccc(OC)cc2)NC(=O)[C@H](C[C@@H](C)CC)NC(=O)[C@H](Cc2ccncc2)NC(=O)[C@H](CCCNC(=N)N)NC(=O)[C@H](Cc2ccc(F)cc2)NC(=O)CSC[C@H](C(=O)O)NC(=O)[C@H](Cc2ccccc2)N(C)C1=O` [compound 62, cyclo(Phe4F-R-4Pal-hlle-TyrOMe-Nva-NMeF-dC-ClAc)] ({CH2CO}-[Phe(4-F)]R[4Pal][hIle]Y(Me)[Nva][NMeF][dC]-OH; thioether N-8), 2060 nM; in that of `CCCC[C@@H]1NC(=O)[C@H](CCCCN=[N+]=[N-])NC(=O)[C@H](CCCNC(=N)N)NC(=O)[C@H](Cc2ccc(F)cc2)NC(=O)CSCCNC(=O)[C@H](Cc2ccccc2)N(C)C(=O)[C@H](CCCC)NC(=O)[C@H](Cc2ccc(O)cc2)NC1=O` [compound 89, cyclo(Phe4F-R-LysN3-Nle-Y-Nle-NMeF-Cysteamine-ClAc)] (cyclo([Lys(N3)][Nle]Y[Nle][NMeF][NHCH2CH2SCH2CO][Phe(4-F)]R)), 3530 nM.
With `CCCC[C@@H]1NC(=O)[C@H](Cc2cccnc2)NC(=O)[C@H](CCCNC(=N)N)NC(=O)[C@H](Cc2ccccc2)NC(=O)[C@H]2CC[C@H](C2)NC(=O)[C@H](Cc2ccccc2)N(C)C(=O)[C@H](CCCC)NC(=O)[C@H](Cc2ccc(OC)cc2)NC1=O` [compound 202, cyclo(F-R-3Pal-Nle-TyrOMe-Nle-NMeF-dbhcLeu)] (cyclo(FR[3Pal][Nle]Y(Me)[Nle][NMeF][X69])), the concentration for a half-maximal effect (EC50) was 949 nM.
Under `CCCC[C@@H]1NC(=O)[C@H](Cc2ccccc2F)NC(=O)[C@H](CC2CCC2)NC(=O)[C@@H](Cc2cccnc2)NC(=O)[C@H](CCCn2ccnc2N)NC(=O)[C@H](Cc2ccccc2)NC(=O)C23CC(CNC(=O)[C@H](Cc4cccnc4)N(C)C1=O)(C2)C3` [compound 110, cyclo(F-NH2IMNva-d3Pal-cBuA-Phe2F-Nle-NMe3Pal-amBCP)] (cyclo(F[X80][d3Pal][Cba][Phe(2-F)][Nle][NMe3Pal][X1])) stands 1.14 nM; under `C[C@H]1C(=O)N[C@@H](Cc2cncnc2)C(=O)N[C@@H](CC2CCC2)C(=O)N[C@@H](Cc2ccccc2F)C(=O)N[C@@H](CCC(C)(F)F)C(=O)N(C)[C@@H](Cc2ccccc2)C(=O)NCC23CC(C2)(C3)C(=O)O[C@@H](Cc2ccccc2)C(=O)N1C` [compound 224, cyclo(FLac-NMcA-PyrimAla-cBuA-Phe2F-Nle3F2-NMeF-amBCP)] (cyclo([Cba][Phe(2-F)][Nle(5,5-F2)][NMeF][X1][PhLac][NMeA][Ala(pyrimidin-5-yl)])), 2.39 nM; under `CCCCC[C@@H]1NC(=O)[C@H](Cc2ccc(OC)cc2)NC(=O)[C@H](CC2CCCC2)NC(=O)[C@H](Cc2ccc(NC(=N)N)cc2)NC(=O)[C@H](CCCNC(=N)N)NC(=O)[C@H](Cc2ccccc2)NC(=O)CSC[C@@](C)(C(N)=O)NC(=O)[C@H](Cc2ccccc2)N(C)C1=O` [compound 366, cyclo(F-R-Phe4Gn-cPeA-TyrOMe-Ahp-NMeF-aMeCl-ClAc)] ({CH2CO}-FR[Phe(4-guanidino)][Ala(cPent)]Y(Me)[Ahp(2)][NMeF][αMeC]-NH2; thioether N-8), 4.01 nM.
With `CCC[C@@H]1NC(=O)[C@H](Cc2ccc(OC)cc2)NC(=O)[C@H](CC(C)C)NC(=O)[C@H](Cc2ccncc2)NC(=O)[C@H](CCCNC(=N)N)NC(=O)[C@H](Cc2ccc(F)cc2)NC(=O)CSC[C@H](C(=O)NCC(=O)O)NC(=O)[C@H](Cc2ccccc2)N(C)C1=O` [compound 65, cyclo(Phe4F-R-4Pal-L-TyrOMe-Nva-NMeF-dC5-ClAc)] ({CH2CO}-[Phe(4-F)]R[4Pal]LY(Me)[Nva][NMeF][dC]G-OH; thioether N-8), a half-maximal effect (EC50) was put at 70.2 nM.
In turn, `CCCC[C@@H]1NC(=O)[C@H](Cc2cccnc2)NC(=O)[C@H](C)N(C)C(=O)[C@H](Cc2ccc(F)nc2)NC(=O)C23CC(CNC(=O)[C@H](Cc4cccnc4)N(C)C(=O)[C@H](CCCC)NC(=O)[C@H](Cc4ccccc4F)NC1=O)(C2)C3` [compound 165, cyclo(4F3Pal-NMeA-3Pal-Nle-Phe2F-Nle-NMe3Pal-amBCP)] (cyclo([3Pal][Nle][Phe(2-F)][Nle][NMe3Pal][X1][X25][NMeA])) displayed an EC50 of 1780 nM.
